Test results from US20140296190A1, “MARKETING THE USE OF 25-HYDROXYVITAMIN D3 TO ENHANCE COGNITION” (DSM IP ASSETS B.V., priority 2013, published 2014).
Like-named read-outs stand apart in the source and are kept apart here.

Legend:
[1] = tested on: frail elderly with a low Vitamin D status; assay: Example 2 placebo-controlled trial: executive function tests in frail elderly; type: in vivo, human; conditions: 6 months, in comparison to Vitamin D3 and placebo
Source text: The design is a parallel group, randomized, placebo-controlled, double-blind study with three different application groups. Each group has an appropriate number of participants (e.g., 20 participants). Eligibility is defined as being 65 years or older and being frail or pre-frail. Frailty is defined as having unintentional weight loss, weakness, self-reported exhaustion, slow walking speed, and/or low physical activity (see Fried L P, et al. Frailty in older adults: evidence for a phenotype. J Gerontol A Biol Sci Med. Sci. March 2001; 56(3):[…]-156.) A participant is classified as pre-frail when one or two of the aforementioned criteria are met, while frail is classified when three or more criteria are present. […] The duration of supplementation is 6 months (180 days). […] Double-blind randomization is carried out by means of a label code associated with a specific participant ID number, whose meaning is known only to the supplier. Participants are allocated randomly to these numbers. For baseline (Day 0) the following tests are performed: […] […] Executive functioning test batteries include the following standard tests of executive functioning: Trail Making Tests A and B (to determine the ratio of TMT-B/TMT-A), Stroop Colour-Word Test, including determining the Stroop ratio, calculated by Stroop card 3/((Stroop card 1+Stroop card 2)/2) and animal fluency test. […]

[2] = Example 2 placebo-controlled trial: serum/plasma 25-OH D3 level in frail elderly; set-up: species or system human; conditions: in vivo
Source text: The design is a parallel group, randomized, placebo-controlled, double-blind study with three different application groups. Each group has an appropriate number of participants (e.g., 20 participants). Eligibility is defined as being 65 years or older and being frail or pre-frail. Frailty is defined as having unintentional weight loss, weakness, self-reported exhaustion, slow walking speed, and/or low physical activity (see Fried L P, et al. Frailty in older adults: evidence for a phenotype. J Gerontol A Biol Sci Med. Sci. […] A participant is classified as pre-frail when one or two of the aforementioned criteria are met, while frail is classified when three or more criteria are present. […] The duration of supplementation is 6 months (180 days). […] Double-blind randomization is carried out by means of a label code associated with a specific participant ID number, whose meaning is known only to the supplier. Participants are allocated randomly to these numbers. For baseline (Day 0) the following tests are performed: […] Baseline evaluation is followed by the randomization of the subjects. From Day 2 on, they start to take the study compounds. […] For the combination administration, the same ranges of both actives are administered. At visits on Day 90 and Day 180 the following tests are performed: […]

[3] = tested on: healthy adults under 65; assay: Example 3 placebo-controlled trial: executive function tests in the general adult population; type: in vivo, human; conditions: healthy adults under 65, 6 months
Description: The design is a parallel group, randomized, placebo-controlled, double-blind study similar to that of Example 2, above, except that the participants are healthy adults under 65. The duration of supplementation is 6 months (180 days). Group size is chosen so that a statistically significant difference, if present, may be observed between placebo and test groups. […] Double-blind randomization is carried out by means of a label code associated with a specific participant ID number, whose meaning is known only to the supplier. Participants are allocated randomly to these numbers. For baseline (Day 0) the following tests are performed: […] Baseline evaluation is followed by the randomization of the subjects. From Day 2 on, they start to take the study compounds. At visits on Day 90 and Day 180 the following tests are performed: […] Executive functioning test batteries include the following standard tests of executive functioning: Trail Making Tests A and B (to determine the ratio of TMT-B/TMT-A), Stroop Colour-Word Test, including determining the Stroop ratio, calculated by Stroop card 3/((Stroop card 1+Stroop card 2)/2) and animal fluency test. These tests are always performed at the same time of the day.

[4] = set-up: species or system human; conditions: in vivo
Source text: The design is a parallel group, randomized, placebo-controlled, double-blind study similar to that of Example 2, above, except that the participants are healthy adults under 65. The duration of supplementation is 6 months (180 days). Group size is chosen so that a statistically significant difference, if present, may be observed between placebo and test groups.
Participants are randomly allocated to either the 25-OH D3 group, Vitamin D3 group, (Vitamin D3+25 OH D3) group or placebo group. Double-blind randomization is carried out by means of a label code associated with a specific participant ID number, whose meaning is known only to the supplier. Participants are allocated randomly to these numbers.
For baseline (Day 0) the following tests are performed: Physical examination, vital signs (blood pressure, heart rate), demographics, clinical laboratory, FFQ, serum: 25-OH D3, 24,25(OH)2D, 1,25(OH)2D3, Vitamin D3, calcium, albumin, creatinine, fasting glucose, PTH; urine: calcium, creatinine; executive function tests (see below). Baseline evaluation is followed by the randomization of the subjects. From Day 2 on, they start to take the study compounds. […]

C=C1CC[C@H](O)C/C1=C/C=C1\CCC[C@]2(C)[C@@H]([C@H](C)CCCC(C)(C)O)CC[C@@H]12 [25(OH)D, 25-hydroxyvitamin D3]
Improvement of executive functioning [1]: significantly higher effect | 25-OH D serum level [2]: significantly increases | Executive function in comparison to placebo [3]: Positive results | 25-OH D serum level [4]: significantly increases
